Laboratory results as given in patent US20210071180A1, “MICRORNA 584-5P COMPOSITIONS AND METHODS FOR TREATING CANCER” (BOARD OF REGENTS, THE UNIVERSY OF TEXAS SYSTEM, priority 2018, published 2021).

Legend:
Format in all cases: cell-based
[1] = test system: MB cells; test: Annexin V-FITC FACS analysis of apoptosis; settings: Annexin V staining
Experimental: To gain more insight into the tumor-suppressing and VCR-sensitizing activities of miR-584-5p, it was determined how the miR-584-5p mimic affected cell cycle progression of MB cells. […] Bar graphs show DNA histograms quantified using the FlowJo software. In FIG. 9A, the p-values were determined by two-way ANOVA followed by Tukey's multiple-comparisons test. Error bars represent mean±SEM. […] In FIG. 9B, the p-values were calculated using standard Student t-tests. Error bars represent mean±SEM. […] Next, it was determined whether miR-584-5p's effect on cell cycle progression may be mediated via its target genes eIF4E3/HDAC1. […] Bar graphs show dot plots quantified using the FlowJo software. Next, it was tested whether miR-584-5p-induced cell cycle arrest led to apoptosis of MB cells. […] In FIG. 8C, the bar graphs reflect DNA histograms quantified using the FlowJo software and in FIG. 8D and FIG. 9C, the bar graphs show dot plots quantified using the FlowJo software. The p-values for panels 8A-D and FIG. 9C were determined by two-way ANOVA followed by Tukey's multiple-comparisons test. Error bars represent mean±SEM. ****, p<0.0001; ***, p<0.001; **, p<0.01; *, p<0.05.
Flow cytometry analysis of cell cycle and apoptosis. […] Cells were analyzed using either FACScantoII or LSRII cytometers, and data were quantified using FlowJo 10.2 software.

[2] = test system: D425Med and D458Med cells; test: Gene expression profiling (Illumina HT-12 v4 BeadChip)
Experimental: Data are z-transformed. The cutoff criteria for each gene are fold change >2, sample intensity >10, and p-value <0.05. […] To validate the gene expression analysis and target prediction results, it was determined whether miR-584-5p reduced HDAC1/eIF4E3 expression by binding to their 3′-untranslated regions (3′-UTRs). […] Also shown are the portion of the miR-584-5p sequence (SEQ ID NO: 15; UAUGGUU) that binds to the wild-type 3′UTR and seed sequence mutant (SEQ ID NO: 16; […], top panel; and SEQ ID NO: 17; […]; bottom panel). Also shown is miR-584-5p seed sequence mutated sequences. […] Values were normalized to firefly luciferase, which served as an internal control. The p-values were calculated using standard Student t-tests. Error bars represent mean±SEM. […] The p-values were calculated using standard Student t-tests.

[3] = test system: MB cells; test: IR dose-response, alamarBlue cell viability assay; settings: IR for 24 hours, normalized to 0 Gy
Excerpt: FIG. 13C-D show representative immunofluorescence images showing 53BP1 foci in D556Med cells transfected with miR-NC or miR-584-5p mimic (C) or scramble-siRNA or eIF4E3/HDAC1-siRNAs (D) and treated with or without 10 Gy of IR.
VCR is routinely used during and after radiation therapy to treat MB patients (Packer, R. J. et al. J Neurosurg 74, 433-440, (1991)), mainly because microtubule-targeting agents such as VCR enhances the toxic effects of DNA-damaging agents, including radiation (Poruchynsky, M. S. et al. Proc Natl Acad Sci USA 112, 1571-1576, (2015); and Oehler, C. et al. Neuro Oncol 13, 1000-1010, doi:10.1093/neuonc/nor069 (2011)). Moreover, cells in G2/M phase are the most sensitive to IR (Pawlik, T. M. & Keyomarsi, K. Int J Radiat Oncol Biol Phys 59, 928-942, (2004)). […] All values were normalized to 0 Gy. […] Error bars represent mean±SEM. Next, it was determined whether eIF4E3 or HDAC1 may mediate miR-584-5p's IR response. […] All values were normalized to 0 Gy. […] Error bars represent mean±SEM.

miR-584-5p: microRNA mimic; nucleotide sequence UUAUGGUUUGCCUGGGACUGAG (SEQ ID NO: 1); purchased from Thermofisher (chemistry not given here)
apoptosis of MB cells [1]: increased apoptosis
TUBB4 expression ([2]; confirmed by real-time PCR): among the highly downregulated genes
FOXO1 levels ([2]; miR-584-5p-treated MB cells): did not change
sensitivity to IR relative to scrambled-transfected cells [3]: 10 fold
